Legend:
Liver microsomes = test: Intrinsic clearance in rat liver microsomes preincubated for 5 mins before addition of NADPH measured after 30 mins by LC/MS/MS analysis; type: ADME, Microsome; settings: 0.5 h
[1] = biological target: 2-oxoglutarate receptor 1 (Homo sapiens, UniProt Q96P68); test: Antagonist activity at human GPR99 receptor expressed in CHO-K1 cells co-expressing Galpha and Gqi5 G-protein assessed as inhibition of succinate-induced increase in intracellular calcium level at by FLIPR assay; type: functional, cell-based
2-oxoglutarate receptor 1, sequence (Q96P68 whole entry, looked up): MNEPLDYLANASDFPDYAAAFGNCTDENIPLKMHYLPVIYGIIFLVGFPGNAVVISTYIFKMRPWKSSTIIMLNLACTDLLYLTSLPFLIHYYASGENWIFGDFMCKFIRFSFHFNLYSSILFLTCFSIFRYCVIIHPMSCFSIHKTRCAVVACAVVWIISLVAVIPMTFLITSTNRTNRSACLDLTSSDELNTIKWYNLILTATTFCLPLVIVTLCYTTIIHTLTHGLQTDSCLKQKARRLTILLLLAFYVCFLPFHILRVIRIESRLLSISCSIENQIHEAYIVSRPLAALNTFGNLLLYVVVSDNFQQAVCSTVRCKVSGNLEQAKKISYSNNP

[2] = Cmax in Wistar rat at 3 mg/kg, iv by LC/MS/MS analysis; type: ADME, organism-based; parameters: dose 3 mg/kg, route intravenous; settings: in vivo
[3] = Plasma clearance in Wistar rat at 3 mg/kg, iv; type: ADME, organism-based; parameters: dose 3 mg/kg, route intravenous
[4] = Volume of distribution at steady state in Wistar rat at 3 mg/kg, iv; type: ADME, organism-based; parameters: dose 3 mg/kg, route intravenous; settings: in vivo, read-out: Vdss
[5] = Terminal half life in Wistar rat at 3 mg/kg, iv; type: ADME, organism-based; parameters: dose 3 mg/kg, route intravenous; settings: in vivo, read-out: beta t1/2 (converted)
[6] = Cmax in Wistar rat at 100 mg/kg, ip by LC/MS/MS analysis; type: ADME, organism-based; parameters: dose 100 mg/kg, route intraperitoneal; settings: in vivo
[7] = Tmax in Wistar rat at 100 mg/kg, ip; type: ADME, organism-based; parameters: dose 100 mg/kg, route intraperitoneal; settings: in vivo
[8] = AUC (0 to 24 hrs) in Wistar rat plasma at 100 mg/kg, ip; type: ADME, organism-based; parameters: time < 24 hr, dose 100 mg/kg, route intraperitoneal
[9] = Plasma concentration in Wistar rat plasma at 100 mg/kg, ip at 2 hrs; type: ADME, organism-based; parameters: dose 100 mg/kg, route intraperitoneal
[10] = Plasma concentration in Wistar rat plasma at 100 mg/kg, ip at 4 hrs; type: ADME, organism-based; parameters: dose 100 mg/kg, route intraperitoneal
[11] = Plasma concentration in Wistar rat plasma at 100 mg/kg, ip at 8 hrs; type: ADME, organism-based; parameters: dose 100 mg/kg, route intraperitoneal
Kidney = test: Drug concentration in Wistar rat kidney at 100 mg/kg, ip; type: ADME, organism-based; parameters: dose 100 mg/kg, route intraperitoneal; settings: in vivo, read-out: Drug uptake
Rattus norvegicus [12] = test: Hypotensive activity in Wistar rat assessed as inhibition of succinate-induced increase in mean arterial pressure at 100 mg/kg, ip after 2 hrs post dose; type: functional; settings: Artery, route intraperitoneal
Rattus norvegicus [13] = test: Hypotensive activity in Wistar rat assessed as inhibition of succinate-induced increase in mean arterial pressure at 100 mg/kg, ip after 4 hrs post dose; type: functional; settings: Artery, route intraperitoneal
[14] = Plasma protein binding in Wistar rat at 100 mg/kg, ip; type: ADME, organism-based; parameters: dose 100 mg/kg, route intraperitoneal; settings: read-out: PPB
Succinate receptor 1 = biological target: T1, Succinate receptor 1 (Homo sapiens, UniProt Q9BXA5); test: Antagonist activity at human GPR91 receptor expressed in CHO-K1 cells co-expressing Galpha and Gqi5 G-protein assessed as inhibition of succinate-induced increase in intracellular calcium level by FLIPR assay; type: functional, cell-based
T1 sequence (Q9BXA5 whole entry): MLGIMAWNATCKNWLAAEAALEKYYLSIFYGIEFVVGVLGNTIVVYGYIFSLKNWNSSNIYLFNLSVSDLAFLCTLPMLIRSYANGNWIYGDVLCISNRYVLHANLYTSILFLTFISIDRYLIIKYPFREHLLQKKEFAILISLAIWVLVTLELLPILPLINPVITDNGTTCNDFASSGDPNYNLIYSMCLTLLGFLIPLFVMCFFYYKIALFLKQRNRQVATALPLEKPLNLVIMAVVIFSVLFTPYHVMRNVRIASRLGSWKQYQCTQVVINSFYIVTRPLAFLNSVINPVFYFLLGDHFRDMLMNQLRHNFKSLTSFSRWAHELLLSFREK

SMILES: C[C@H](NC(=O)Cc1ccc(-c2ccc3cccnc3n2)cc1)c1ccc(-c2ccc(F)c(C(F)(F)F)c2)cc1
- Intrinsic clearance (Liver microsomes): 0.2 nmol/min/mg
- IC50 [1]: > 30 µM
- Cmax [2]: 9.8 µM
- clearance [3]: 36 mL/min/kg
- Vd [4]: 1 L/kg
- half-life [5]: 54 min
- Cmax [6]: 400 nM
- Tmax [7]: 4.9 h
- AUC(0-t) at 24 h [8]: 4.3 µM·h
- concentration at 2 h [9]: 240 nM
- concentration at 4 h [10]: 330 nM
- concentration at 8 h [11]: 280 nM
- concentration (Kidney): 8 µM
- inhibition in vivo at 100 mg/kg (Rattus norvegicus [12]): 59%
- inhibition in vivo at 100 mg/kg (Rattus norvegicus [13]): 76%
- fraction unbound [14]: 0.01
- IC50 (Succinate receptor 1): 7 nM

Reference: ChEMBL document CHEMBL2150920, “Discovery of a potent and selective small molecule hGPR91 antagonist” (Bioorg Med Chem Lett, 2011)
